Source: PMC9034004, “Methionine epimerization in cyclic peptides” (RSC Advances, 2021)

Key:
MDA-MB-231 cells = experiment: CytoTox Green cytotoxicity assay, MDA-MB-231; format: cell-based, Human; settings: 100 μM, 48 h, 8000 cells per well, DMSO 2% as negative control
Procedure: A Forma Series II 3110 Water-Jacketed CO2 Incubator (Thermo Fisher Scientific) containing T-75 cell culture flasks at 37 °C under a humidified atmosphere was used to culture human breast cancer cell lines MDA-MB-231 and Sk-Br-3. 10% fetal bovine serum (FBS) and 1% penicillin under 5% CO2 were used to supplement McCoy's 5A Modified Medium to culture Sk-Br-3 cell line, and 10% FBS and 1% penicillin under 0% CO2 were used to supplement Leibovitz's L-15 Medium to culture MDA-MB-231 cell line. Each cell line's culture medium was changed every 2–3 days.
MDA-MB-231 and Sk-Br-3 cells were plated in 96-well plates at 8000 cells per well (final culture volume – 300 μL) and allowed to grow overnight for attachment before being treated with LO. LO stock solutions were prepared in DMSO at various concentrations of 200 μM; 100 μM; 50 μM, 25 μM, 12.5 μM. CytoTox Green reagent was added to wells during treatments. DMSO treated cells (final concentration at 2%) were used as a negative control. Following the manufacturer's recommended protocols, LOs cytotoxicity was continuously monitored at 24 h intervals for 120 h and calculated using the equation.Cytotoxicity (%) = [OD (experiment) − OD (vehicle control)]/[OD (maximum cell death) − OD (vehicle control)] × 100%

[1] = Alkaline treatment of LOs (base-catalysed Met epimerization, HPLC); format: physicochemical; settings: LOs 1, 4 and 7 mixture treated with KOH in 70% aqueous ethanol, HPLC at 214 nm and 280 nm
Procedure: HPLC data was collected at a wavelength range of 190–300 nm using Agilent 1200 series HPLC system equipped with an autosampler, quaternary pump, diode array detector and degasser. Chromatographic separations for Marfey's derivatives were conducted on 100 mm × 4.6 mm i.d., reversed-phase Chromolith® Performance RP-18e columns (Merck KGaA, Darmstadt, Germany). The mobile phase consisted of H2O and 0.05 M triethyl phosphate buffer at a flow rate of 2 mL min^−1 (85 : 15 for 3 min, 85 : 15 to 60 : 40 in 18 min, to 10 : 90 in 0.5 min, 10 : 90 for 1 min, to 85 : 15 in 0.5 min, to equilibration for 2 min) with column compartment at 30 °C. Chromolith® High Resolution RP-18e columns 50 mm × 4.6 mm i.d. (Merck KGaA, Darmstadt, Germany) equipped with in-line filters were used for LO analytical characterization. H2O and CH3CN linear HPLC gradient with a flow rate of 2 mL min^−1 (50 : 50 to 20 : 80 for 1.8 min, 20 : 80 to 10 : 90 in 0.1 min, to 50 : 50 in 0.1 min, to equilibration for 1 min), and a column compartment at 32 °C was used.
LO (1 g) was dissolved in 70% aqueous ethanol (2.5 mL) and KOH (0.25 g) was added. The mixture was sonicated for 30 min. A portion of the mixture (∼1 mL) was transferred to a glass vial and extracted with EtOAc (∼3 mL) then settled. The upper EtOAc phase was transferred by pipette to a clean tube and dried under airflow. […]

Row | new HPLC peak after KOH treatment (in words) [1] | Substance | % cytotoxicity (MDA-MB-231 cells) [%]
1 | – | [1−9-NαC]-linusorb B2 [LO 2] | ~40
2 | – | [1−9-NαC], DMet-linusorb B2 [LO 8] | ~100
3 | no extra peak was observed | [1−9-NαC]-linusorb B3 [LO 1] | –
